The source of these data is patent US10870627B2, “Salt of quinazoline derivative, preparation method therefor and application thereof” (SHANGHAI PHARMACEUTICALS HOLDING CO., LTD., priority 2016, dated 2020).

Like-named read-outs stand apart in the source and are kept apart here.

By Tmax is commonly meant the time from dosing to the highest level. The term half-life denotes the time needed for the level to fall by half in the phase considered.

Data set [1] in a line: Dynamic vapor sorption (DVS), isothermal absorption analysis. It counts as physicochemical. Here is the method: In the present invention, according to the common knowledge in the art, the amount of water absorption obtained from the dynamic vapor sorption (DVS) pattern is expressed in percentage by weight.
The isothermal absorption analysis (DVS) data was collected from TA Instruments Q5000 TGA. The software for instrument control was Thermal Advantage and software for analysis was Universal Analysis. 1-10 mg of the sample was generally placed in a platinum crucible, and the weight change of the sample during the relative humidity changing from 20% to 80% was recorded by the TA software. Depending on the specifics of the sample, different steps of sample adsorption and desorption were also involved.

The nature of data set [2]: Solid-state stability test. It counts as physicochemical. Here is the method:
An appropriate amount of the drugs were placed in the surface dish, spread to a thickness of 3-5 mm, and exposed in high temperature, high temperature and high humidity, illumination and oxidation conditions for 10 days respectively, and the solid-state characterization was performed. The purity and the number of impurities 0.05%) of the samples for testing were determined by HPLC, and compared with the samples on day 0. The exposure conditions are:
High temperature (an oven with T=60° C.);
Illumination (25° C., a 4500±500 lx light incubator);
Oxidation (25° C., a closed container containing urea hydrogen peroxide).

A short description of data set [3]: Solution stability test. It counts as physicochemical. Here is the method: About 15 mg of the sample was weighed accurately, dissolved with 25 mL of the test solvent (10% aqueous acetone solution, pH=4.0 B-R buffer solution, SGF, SIF) via ultrasound for 20 minutes. The solution was divided into four portions and placed in the clear glass vials, followed by sealing. The samples were exposed in different environments and sampled on day 0 and day 5. The purity of each sample was determined by HPLC, and the number of impurities greater than 0.05% was calculated and compared with the samples on day 0. The exposure environments are:
Room temperature and light-proof test, 25° C.; […]
Illumination experiment (4500±500 lx), 25° C.;
Oxidation experiment (3% v/v hydrogen peroxide), 25° C.

Data set [4] in a line: Comparison of absorption in rats after intragastric administration of free base and salt (plasma pharmacokinetics). It counts as in vivo, SD rats. The settings on record: for AUC (0-t) and Cmax, comparison in words: rats, oral, same dose, free base and 6 salts. Here is the method:
The blood sample was centrifuged at 8000 RPM for 5 minutes, followed by the isolation of the upper plasma. […] 200 μL of the supernatant was taken and centrifuged again for 10 minutes. 50 μL of the supernatant was injected in a 96-well plate. The plasma drug concentration was determined by LC/MS/MS, and the corresponding pharmacokinetic parameters were calculated.

Data set [5] can be described thus: Water solubility at 20° C. determined by HPLC. The format is physicochemical.
Procedure: The solubility was determined as follows: a certain amount of the sample was weighed and the solvent was added thereto in portions with stirring or ultrasonication to accelerate dissolution; the amount of the consumed solvent was recorded once the sample was dissolved. […] A certain volume of the solution was taken, followed by filtration, concentration, dissolved with a certain volume of other suitable solvents and subjected to HPLC measurement to obtain accurate data of the solubility.
The mark [6] stands for this setting: relative humidity range of 50-80%.
The mark [7] stands for this setting: 10 d, High temperature (oven, T=60° C.).
[8] abbreviates: 10 d, High temperature and high humidity (40° C., 75% relative humidity).
Where [9] appears, read: 10 d, Illumination (25° C., 4500±500 lx).
Setting [10] is: 10 d, Oxidation (25° C., closed container with urea hydrogen peroxide).
Setting [11] is: 10% aqueous acetone solution, 5 d, High temperature.
[12] abbreviates: 10% aqueous acetone solution, 5 d, High temperature and high humidity.
The mark [13] stands for this setting: 10% aqueous acetone solution, 5 d, Illumination (4500±500 lx, 25° C.).
Setting [14] is: B-R Buffer solution (pH=4.0), 5 d, High temperature.
Setting [15] is: B-R Buffer solution (pH=4.0), 5 d, High temperature and high humidity.
Where [16] appears, read: B-R Buffer solution (pH=4.0), 5 d, Illumination (4500±500 lx, 25° C.).
Setting [17] is: B-R Buffer solution (pH=4.0), 5 d, Oxidation (3% v/v hydrogen peroxide, 25° C.).
Where [18] appears, read: SGF, 5 d, High temperature and high humidity.
[19] abbreviates: SGF, 5 d, Illumination (4500±500 lx, 25° C.).
[20] abbreviates: SGF, 5 d, Oxidation (3% v/v hydrogen peroxide, 25° C.).
Setting [21] is: SIF, 5 d, High temperature and high humidity.
Setting [22] is: SIF, 5 d, Illumination (4500±500 lx, 25° C.).
Setting [23] is: SIF, 5 d, Oxidation (3% v/v hydrogen peroxide, 25° C.).
Setting [24] is: rat, po, 20 umol/kg, SD rats, intragastric administration, plasma.
Setting [25] is: SD rats, 20 μmol/kg, intragastric administration, plasma.

`C=C(F)C(=O)Nc1cc2c(Nc3ccc(F)c(Cl)c3)ncnc2cc1OCCCN1CCOCC1.O=C(O)CC(O)(CC(=O)O)C(=O)O` [crystal form 13 of the monocitrate]: the “weight change (water absorbed) by DVS” value in data set [1] (relative humidity range of 20-80%) turned out to be 0.2%.
On to `C=C(F)C(=O)Nc1cc2c(Nc3ccc(F)c(Cl)c3)ncnc2cc1OCCCN1CCOCC1.O.O.O=C(O)CC(O)(CC(=O)O)C(=O)O` [crystal form 11 of the dihydrate], for which, in data set [1] (setting [6]), the “stability of the hydrate (DVS), in words” value was “stable” and the “weight change (water absorbed) by DVS” value was 5.3%.
For the molecule `C=C(F)C(=O)Nc1cc2c(Nc3ccc(F)c(Cl)c3)ncnc2cc1OCCCN1CCOCC1` [N-[4-(3-chloro-4-fluoroanilino)]-7-(3-morpholinopropoxy)-6-(2-fluoroacrylamido)-quinazoline, reference compound], the Number of impurities in data set [2] (0 d) was 1; in data set [2] (setting [7]), 2; in data set [2] (setting [8]) it was 3; in data set [2] (setting [9]), 2; in data set [2] (setting [10]), 3; in data set [3] (10% aqueous acetone solution, 0 d, impurities greater than 0.05%) it was 2. Besides, the Number of impurities in data set [3] (setting [11]) is 2; in data set [3] (setting [12]) it was 6; in data set [3] (setting [13]), 4; in data set [3] (B-R Buffer solution (pH=4.0), 0 d, impurities greater than 0.05%) it was 1; in data set [3] (setting [14]) it was 1; in data set [3] (setting [15]), 4. The Number of impurities in data set [3] (setting [16]) came out at 1; in data set [3] (setting [17]) it was 13; in data set [3] (SGF, 0 d, impurities greater than 0.05%), 2; in data set [3] (SGF, 5 d, High temperature), 2; in data set [3] (setting [18]), 4; in data set [3] (setting [19]), 2. The Number of impurities in data set [3] (setting [20]) is 3; in data set [3] (SIF, 0 d, impurities greater than 0.05%), 1; in data set [3] (SIF, 5 d, High temperature) it was 2; in data set [3] (setting [21]), 4; in data set [3] (setting [22]), 18; in data set [3] (setting [23]) it was 5. The Purity in data set [2] (setting [7]) came to 99.0%; in data set [2] (setting [8]), 99.0%; in data set [2] (setting [9]), 99.0%; in data set [2] (setting [10]), 99.0%; in data set [3] (10% aqueous acetone solution, 0 d) it was 93.4%; in data set [3] (setting [11]) it was 83.1%. Further, the Purity in data set [3] (setting [12]) is listed as 13.3%; in data set [3] (setting [13]), 61.5%; in data set [3] (10% aqueous acetone solution, 5 d, Oxidation (3% v/v hydrogen peroxide, 25° C.)), “Complete”; in data set [3] (B-R Buffer solution (pH=4.0), 0 d), 99.0%; in data set [3] (setting [14]) it was 99.0%; in data set [3] (setting [15]), 95.0%. In addition, the Purity in data set [3] (setting [16]) is on record as 99.0%; in data set [3] (setting [17]), 40.6%; in data set [3] (SGF, 0 d), 99.0%; in data set [3] (SGF, 5 d, High temperature), 99.0%; in data set [3] (setting [18]), 94.2%; in data set [3] (setting [19]) it was 99.0%. Moreover, the Purity in data set [3] (setting [20]) is given as 84.3%; in data set [3] (SIF, 0 d), 88.9%; in data set [3] (SIF, 5 d, High temperature), 85.6%; in data set [3] (setting [21]), 81.9%; in data set [3] (setting [22]), 50.0%; in data set [3] (setting [23]), 62.7%. Moreover, the AUC (0-t) in data set [4] (rat, po, 20 umol/kg, SD rats, 20 μmol/kg, intragastric administration, plasma, read-out: AUC (0-t) (converted)) is 2.05 µM·h. Further, in data set [4] (rat, po, 20 umol/kg, SD rats, 20 μmol/kg, intragastric administration, plasma, read-out: MRT (0-T) (converted)), the MRT last was 6.66 h. Moreover, in data set [4] (rat, po, 20 umol/kg, SD rats, 20 μmol/kg, intragastric administration, plasma, read-out: Tmax (converted)), the Tmax is 1 h. The Cmax in data set [4] (setting [24]) was 310 ± 70 nM. For the same molecule, the half-life in data set [4] (setting [24]) was 4.28 ± 1.77 h.
In the case of `C=C(F)C(=O)Nc1cc2c(Nc3ccc(F)c(Cl)c3)ncnc2cc1OCCCN1CCOCC1.O.O.O=C(O)CC(O)(CC(=O)O)C(=O)O` [crystal form 7 of the dihydrate], in data set [1] (relative humidity range of 10-80%), the “weight change (water absorbed) by DVS” value is 0.38%.
Take `C=C(F)C(=O)Nc1cc2c(Nc3ccc(F)c(Cl)c3)ncnc2cc1OCCCN1CCOCC1.O.O.O=C(O)CC(O)(CC(=O)O)C(=O)O` [crystal form 5 of the dihydrate]: the “weight change (water absorbed) by DVS” value in data set [1] (relative humidity range of 0-80%) stood at 0.4%.
Take `C=C(F)C(=O)Nc1cc2c(Nc3ccc(F)c(Cl)c3)ncnc2cc1OCCCN1CCOCC1.O=C(O)[C@H](O)[C@@H](O)[C@H](O)[C@H](O)CO`: the “water solubility at 20° C. determined by HPLC” value in data set [5] turned out to be 51.4 µg/mL. Further, in data set [4] (setting [25]), the “AUC (0-t)” value is 8.0733 ± 3.3618 µM·h, the “MRT (0-T)” value turned out to be 6.2613 ± 2.5515 h, the Tmax is 1.333 ± 0.5773 h and the t1/2 stood at 3.5572 ± 0.3487 h. Also, in data set [4] (SD rats, 20 μmol/kg, intragastric administration, plasma, listed as mono-D-gluconate), the Cmax was 1120 ± 280 nM. The “AUC (0-t) and Cmax, comparison in words” value in data set [4] is listed as “relatively low”.
As to `C=C(F)C(=O)Nc1cc2c(Nc3ccc(F)c(Cl)c3)ncnc2cc1OCCCN1CCOCC1.O.O.O.O=C(O)CC(O)(CC(=O)O)C(=O)O` [crystal form 10 of the trihydrate], in data set [1] (below a relative humidity of 50%), the “water eliminated by DVS” value turned out to be 3.5%. In data set [1] (setting [6]), the “stability of the hydrate (DVS), in words” value is on record as “stable” and the “weight change (water absorbed) by DVS” value came out at 1.1%.
As to `C=C(F)C(=O)Nc1cc2c(Nc3ccc(F)c(Cl)c3)ncnc2cc1OCCCN1CCOCC1.Cl.O`, the “water solubility at 20° C. determined by HPLC” value in data set [5] was determined as 51.5 µg/mL. For the same molecule, in data set [4] (setting [25]), the “AUC (0-t)” value was 8.4648 ± 1.114 µM·h, the “MRT (0-T)” value worked out at 6.8127 ± 1.364 h, the Tmax is 1.167 ± 0.2887 h and the t1/2 came out at 4.5078 ± 1.56 h. The Cmax in data set [4] (SD rats, 20 μmol/kg, intragastric administration, plasma, listed as monohydrochloride monohydrate) is 980 ± 60 nM. Also, the “AUC (0-t) and Cmax, comparison in words” value in data set [4] is “relatively low”.
